We go through 15 compounds from US20260374773A1, “MULTI-CYCLIC IRAK AND FLT3 INHIBITING COMPOUNDS AND USES THEREOF” (CHILDREN'S HOSPITAL MEDICAL CENTER, priority 2022, published 2026).

What all share (type): cell-based
For experiment [1], the system named is NF-κB. Kind of experiment: NF-κB SEAP reporter assay in THP-1-Blue NF-κB cells, Pam3CSK4 stimulated. The conditions noted are these: THP-1-Blue cells, 1 ng/ml Pam3CSK4, 24 h, read-out: NF-κB Pam3SCK4 IC50. The procedure: (§1) THP-1-Blue NF-κB cells (InvivoGen) carrying a stable integrated NF-κB-inducible secreted embryonic alkaline phosphatase (SEAP) reporter construct were plated at a concentration of 1×10^5 cells per well. The cells were stimulated with Pam3CSK4 (1 ng/ml) or hIL1B (1 ng/ml). After 10-20 minutes, the cells were then treated with vehicle (DMSO) or serial dilutions of the test compounds (10 doses tested for each test compound, with a […] starting at 1 μM or 3 μM) with a final volume of 200 μL for 24 hours at 37 °C. After 24 hours, the cells were centrifuged and 20 μL supernatant was incubated with 180 μL QUANTI-Blue reagent at 37 °C for 30-60 minutes. The levels of NF-κB-induced was measured in a microplate reader at 620 nm.
as §1, with “1 mM” for “1 μM”, “3 mM)” for “3 μM)”, “200 mL” for “200 μL”, “20 mL” for “20 μL”, “180 mL” for “180 μL”, “NF-κB-induced gene expression were” for “NF-κB-induced was”
In general terms: A reporter such as luciferase makes a cellular process visible.

The subject of experiment [2] is NF-κB. Kind of experiment: NF-κB SEAP reporter assay in THP-1-Blue NF-κB cells, hIL1B stimulated. The conditions noted are these: THP-1-Blue cells, 1 ng/ml hIL1B, 24 h, read-out: NF-κB IL1B IC50. The procedure: as §1
as §1, with “1 mM” for “1 μM”, “3 mM)” for “3 μM)”, “200 mL” for “200 μL”, “20 mL” for “20 μL”, “180 mL” for “180 μL”, “NF-κB-induced gene expression were” for “NF-κB-induced was”

The target of a further experiment is T1, IRAK4 (Homo sapiens, UniProt Q9NWZ3).
T1 sequence (Q9NWZ3 1-460): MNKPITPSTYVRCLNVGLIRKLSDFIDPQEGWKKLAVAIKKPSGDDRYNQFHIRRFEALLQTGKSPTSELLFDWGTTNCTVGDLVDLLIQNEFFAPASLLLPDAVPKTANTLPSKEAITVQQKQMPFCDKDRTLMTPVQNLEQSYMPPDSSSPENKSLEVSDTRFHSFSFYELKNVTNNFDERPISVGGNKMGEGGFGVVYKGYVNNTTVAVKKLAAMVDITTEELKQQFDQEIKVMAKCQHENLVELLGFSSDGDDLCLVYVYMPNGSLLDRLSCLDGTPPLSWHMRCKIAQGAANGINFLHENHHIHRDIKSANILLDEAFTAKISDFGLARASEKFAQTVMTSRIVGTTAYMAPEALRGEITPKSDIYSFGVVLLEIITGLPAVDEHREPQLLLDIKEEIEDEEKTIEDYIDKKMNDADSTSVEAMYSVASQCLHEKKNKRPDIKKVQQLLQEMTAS
Description: NanoBRET target engagement assay in HEK-293 cells, IRAK4. The conditions noted are these: live HEK-293 cells, 1 h. From the text:
The NanoBRET assay measures kinase engagement in real time in the context of the intact cell. Unlike the previously described biochemical kinase assay methodology, the NanoBRET assay measures the binding and activity characteristics under equilibrium conditions using full-length kinases in the presence of cellular concentrations of ATP in live, uncompromised cells. As such, the assay provides a more relevant assessment of kinase potency and selectivity that would be expected to be observed in the native cellular environment, where potency is often considerably lower than that observed in the isolated biochemical assays (Vasta, J. D. et al., (2018) Cell Chem. Biol. 25, 206-214). The assay uses a Kinase-NanoLuc® fusion vector expressing a kinase protein to which a luciferase tag has been added, a cell-permeant fluorescent NanoBRET™ tracer, a NanoLuc® substrate, and an extracellular NanoLuc® inhibitor. Upon expression of the luciferase-tagged kinase, cells will produce a strong BRET signal only in the presence of the NanoBRET™ tracer. The extracellular NanoLuc® inhibitor ensures that the BRET signal observed emanates only from live cells. Because the BRET signal has tight distance constraints, addition of the test compound will decrease the BRET signal if the compound competes with the NanoBRET™ tracer for binding to the kinase domain. Under the appropriate tracer conditions established by the manufacturer, quantitative intracellular affinity and relative potency can then be determined using Mass Action model equations.
HEK-293 cells were purchased from ATCC. FuGENEHD Transfection Reagent, Kinase-NanoLucfusion plasmids, Transfection Carrier DNA, NanoBRETTracers and dilution buffer, NanoBRETNano-Glo Substrate, Extracellular NanoLucInhibitor were obtained from Promega.
Assays were conducted following Promega assay protocol with some modifications. HEK-293 Cells were transiently transfected with Kinase-NanoLucFusion Vector DNA by FuGENEHD Transfection Reagent. Testing compounds were delivered into 384 well assay plate by Echo 550 (LabcyteInc, Sunnyvale, CA). Transfected cells were harvested and mixed with NanoBRETTracer Reagent and dispensed into 384 well plates and incubated at 37 °C in 5% CO2 cell culture incubator for 1 hour. The NanoBRETNano-Glo Substrate plus Extracellular NanoLucInhibitor Solution were added into the wells of the assay plate and incubated for 2-3 minutes at room temperature. The donor emission wavelength (460 nm) and acceptor emission wavelength (600 nm) were measured in the En Visionplate reader. The BRET Ratios were calculated.
BRET Ratio=[(Acceptor sample÷Donor sample)−(Acceptor no-tracer control÷Donor no-tracer control)].
The IC50 values of compounds were calculated with Prism GraphPad program.
• 1). Cultivate HEK-293 cells (70-80% confluence) appropriately prior to assay. Trypsinize and collect HEK-293 cells. • 2). Prepare lipid:DNA complexes as follows: • a. Prepare a 10 μg/ml solution of DNA in Opti-MEM without serum that consists of the following ratios of carrier DNA and DNA encoding NanoLuc® fusion. 9.0 μg/mL of Transfection Carrier DNA, 1.0 μg/mL of NanoLuc fusion vector DNA and 1 mL of Opti-MEM without phenol red. Mix thoroughly. • b. Add 30 μl of FuGENE HD Transfection Reagent into each milliliter of DNA mixture to form lipid:DNA complex. • c. Mix by inversion 10 times. • d. Incubate at ambient temperature for 20 minutes to allow complexes to form. • 3). In a sterile, conical tube, mix 1 part of lipid:DNA complex with 20 parts of HEK-293 cells in suspension. Mix gently by inversion 5 times. • 4). Dispense cells+lipid:DNA complex into a sterile tissue culture dish and incubate for 22-24 hours.
Each test compound is delivered from the compound source plate to the wells of 384-well white NBS plate by Echo 550.
3. Preparation of Cells with NanoBRET™ Tracer Reagent • 1). Remove medium from dish with transfected HEK-293 cells via aspiration, trypsinize and allow cells to dissociate from the dish. • 2). […]
(In general: BRET reads energy transfer from a luciferase to a nearby fluorophore.)

pIC50: −log10 of the molar value. Where only a bound is given, the exact number is not on record here.

As for `COc1cn2ncc(-c3nc(N[C@@H]4CCCNC4)ccc3F)c2nc1C1CC1` [Compound 2, (R)-6-(5-cyclopropyl-6-methoxypyrazolo[1,5-a]pyrimidin-3-yl)-5-fluoro-N-(piperidin-3-yl)pyridin-2-amine], the pIC50 (usually the IC50 on a negative log10 scale, so that one unit is a factor of ten) is 7.15 in the experiment with NF-κB [1] (Table 15) and 7.03 in the experiment with NF-κB [2] (Table 15).

On to `COc1cn2ncc(-c3nc(N[C@H]4CNCC[C@@H]4F)ccc3F)c2nc1C1CC1` [Compound 3, 6-(5-cyclopropyl-6-methoxypyrazolo[1,5-a]pyrimidin-3-yl)-5-fluoro-N-((3S,4S)-4-fluoropiperidin-3-yl)pyridin-2-amine], for which the negative logarithm of the IC50 (pIC50) against IRAK4 (Table 14) is > 9.30; in the experiment on NF-κB [1] (Table 15) it was 7.66; in the experiment on NF-κB [2] (Table 15), 7.59.

For the compound `COc1cn2ncc(-c3ccnc(N[C@H]4CNCC[C@@H]4F)n3)c2nc1C(C)(C)O` [Compound 3a, 2-(3-(2-(((3S,4S)-4-fluoropiperidin-3-yl)amino)pyrimidin-4-yl)-6-methoxypyrazolo[1,5-a]pyrimidin-5-yl)propan-2-ol], on IRAK4 (Table 20), the pIC50 is 8.10.

Regarding `COc1cn2ncc(-c3nc(N[C@@H]4CCCNC4)ncc3F)c2nc1C(C)(C)O` [Compound 4a, (R)-2-(3-(5-fluoro-2-(piperidin-3-ylamino)pyrimidin-4-yl)-6-methoxypyrazolo[1,5-a]pyrimidin-5-yl)propan-2-ol], the negative logarithm of the IC50 (pIC50) on IRAK4 (Table 20) is 8.52.

Compound `COc1cn2ncc(-c3ccc(F)c(N[C@@H]4CCCNC4)n3)c2nc1C1CC1` [Compound 5, (R)-6-(5-cyclopropyl-6-methoxypyrazolo[1,5-a]pyrimidin-3-yl)-3-fluoro-N-(piperidin-3-yl)pyridin-2-amine] gave a pIC50 at IRAK4 (Table 14) of 8.52.

`COc1cn2ncc(-c3nc(N[C@H]4CNC[C@@H]4F)ncc3F)c2nc1C(C)(C)O` [Compound 5a, 2-(3-(5-fluoro-2-(((3S,4S)-4-fluoropyrrolidin-3-yl)amino)pyrimidin-4-yl)-6-methoxypyrazolo[1,5-a]pyrimidin-5-yl)propan-2-ol] showed a pIC50 against IRAK4 (Table 20) of 8.70.

Regarding `COc1cn2ncc(-c3ccc(F)c(N[C@H]4CNCC[C@@H]4F)n3)c2nc1C1CC1` [Compound 6, 6-(5-cyclopropyl-6-methoxypyrazolo[1,5-a]pyrimidin-3-yl)-3-fluoro-N-((3S,4S)-4-fluoropiperidin-3-yl)pyridin-2-amine], the pIC50 against IRAK4 (Table 14) was > 9.30; with NF-κB [1] (Table 15), 6.52; in the experiment on NF-κB [2] (Table 15), 6.66.

In the case of `COc1cn2ncc(-c3nc(N[C@H]4CNCC[C@@H]4F)ncc3F)c2nc1C(C)(C)O` [Compound 6a, 2-(3-(5-fluoro-2-(((3S,4S)-4-fluoropiperidin-3-yl)amino)pyrimidin-4-yl)-6-methoxypyrazolo[1,5-a]pyrimidin-5-yl)propan-2-ol], the pIC50 at IRAK4 (Table 20) is > 9.30; in the experiment on NF-κB [1] (Table 21), 7.24; in the experiment on NF-κB [2] (Table 21), 7.28.

On to `COc1cn2ncc(-c3ccnc(N[C@H]4CNCC[C@@H]4F)n3)c2nc1C1CC1` [Compound 7a, 4-(5-cyclopropyl-6-methoxypyrazolo[1,5-a]pyrimidin-3-yl)-N-((3S,4S)-4-fluoropiperidin-3-yl)pyrimidin-2-amine], for which the negative-log IC50 (pIC50) against IRAK4 (Table 20) was 9.10; in the experiment with NF-κB [1] (Table 21), 7.26; in the experiment with NF-κB [2] (Table 21) it was 7.30.

As for `COc1cn2ncc(-c3ccnc(N[C@H]4CNC[C@@H]4F)n3)c2nc1C1CC1` [Compound 8a, 4-(5-cyclopropyl-6-methoxypyrazolo[1,5-a]pyrimidin-3-yl)-N-((3S,4S)-4-fluoropyrrolidin-3-yl)pyrimidin-2-amine], the results for the negative logarithm of the IC50 (pIC50) on IRAK4 (Table 20), with NF-κB [1] (Table 21) and with NF-κB [2] (Table 21) were 9.22, 7.14 and 7.34, respectively.

Take `COc1cn2ncc(-c3nc(N[C@@H]4CCCNC4)c(C#N)cc3F)c2nc1C(C)(C)O` [Compound 9, (R)-5-fluoro-6-(5-(2-hydroxypropan-2-yl)-6-methoxypyrazolo[1,5-a]pyrimidin-3-yl)-2-(piperidin-3-ylamino)nicotinonitrile]: the pIC50 is 7.41 in the experiment on NF-κB [1] (Table 15) and 7.06 with NF-κB [2] (Table 15).

In the case of `COc1cn2ncc(-c3nc(N[C@H]4CNCC[C@@H]4F)c(C#N)cc3F)c2nc1C(C)(C)O` [Compound 10, 5-fluoro-2-(((3S,4S)-4-fluoropiperidin-3-yl)amino)-6-(5-(2-hydroxypropan-2-yl)-6-methoxypyrazolo[1,5-a]pyrimidin-3-yl)nicotinonitrile], the pIC50 was 7.66 in the experiment with NF-κB [1] (Table 15) and 7.39 in the experiment on NF-κB [2] (Table 15).

`COc1cn2ncc(-c3nc(N[C@@H]4CCCNC4)c(F)cc3F)c2nc1C(C)(C)O` [Compound 11, (R)-2-(3-(3,5-difluoro-6-(piperidin-3-ylamino)pyridin-2-yl)-6-methoxypyrazolo[1,5-a]pyrimidin-5-yl)propan-2-ol]: the figures for the pIC50 against IRAK4 (Table 14), in the experiment with NF-κB [1] (Table 15) and with NF-κB [2] (Table 15) were > 9.30, 6.89 and 7.00, respectively.

In the case of `COc1cn2ncc(-c3cccc(N[C@H]4CNC[C@@H]4F)n3)c2nc1C1CC1` [Compound 19, 6-(5-cyclopropyl-6-methoxypyrazolo[1,5-a]pyrimidin-3-yl)-N-((3S,4S)-4-fluoropyrrolidin-3-yl)pyridin-2-amine], the pIC50 is 7.21 in the experiment on NF-κB [1] (Table 15) and 7.01 in the experiment with NF-κB [2] (Table 15).

For `COc1cn2ncc(-c3cccc(N[C@@H]4CCCNC4)n3)c2nc1C1CC1` [Compound 20, (R)-6-(5-cyclopropyl-6-methoxypyrazolo[1,5-a]pyrimidin-3-yl)-N-(piperidin-3-yl)pyridin-2-amine], the values for the pIC50 in the experiment on NF-κB [1] (Table 15) and in the experiment on NF-κB [2] (Table 15) were 6.36 and 6.19, respectively.
